# US9889181B2, “Bacteriophage lysin and antibiotic combinations against gram positive bacteria” (priority 2012, dated 2018)
# Like-named read-outs stand apart in the source and are kept apart here.
# What was measured:
# S. aureus cell envelope = assay: BODIPY-labeled antibiotic cell envelope binding time course; assay type: cell-based
# Source text: As a complement to the synergy studies, daptomycin and vancomycin cell envelope-binding was examined using BODIPY-fluorescein-labeled antibiotics in the presence and absence of sub-MIC levels of CF-301.
# [1] = test system: 20 different MSSA and 42 MRSA strains; assay: Time-kill assay, single agents at 1×MIC; assay type: cell-based, Staphylococcus aureus; details: 1×MIC; for comparative kill: up to 6 hours
# Procedure: In order to more fully evaluate PlySs2's applicability to clinical Staphylococcal infections, time kill studies were undertaken against numerous Staphylococcus aureus strains, including methicillin resistant and methicillin sensitive strains. Time kill assays were performed according to CLSI methodology (CLSI document M07-A9 column 32 No. 2) on 42 methicillin resistant S. aureus (MRSA) strains and 20 methicillin sensitive S. aureus (MSSA) strains. Cultures of each strain (5.5×10^5-1×10^6 starting inoculum) were treated with PlySs2 lysin and with antibiotics daptomycin, oxacillin or vancomycin for comparison for 6 hours with aeration. MRSA and MSSA strains were treated with PlySs2, daptomycin and vancomycin. MSSA strains were also treated with oxacillin. 1×MIC concentrations of the different antibiotics were utilized, based on published and established antibiotic MIC values. PlySs2 lysin treatment was at approximately 1×MIC as previously determined (see TABLE 2 above). Culture aliquots were removed hourly up to 6 hours (time points taken at 15 and 30 min, 1 hr, 2 hr, 3 hr, 4 hr, 5 hr, and 6 hr) and added to a PBS/charcoal solution (to inactivate each drug), which was then serially diluted and plated for bacterial viability. The resulting log CFU/mL was plotted for each culture. Growth controls were included for each strain and represent bacterial growth in the absence of any antibacterial agent. Exemplary log kill curves for selected MRSA strains are depicted in FIG. 1. Exemplary log kill curves for selected MSSA strains are depicted in FIG. 2.
# Rapid-kill kinetics are desirable in the clinical setting to treat patients with fulminant bacterial infections.
# MRSA strain 269 (MW2) = assay: Combination MIC in 15% surfactant (Survanta); assay type: cell-based, Staphylococcus aureus
# [2] = test system: MRSA strain MW2 and MSSA strain ATCC 29213; assay type: cell-based, Staphylococcus aureus
# MRSA S. aureus strains = assay: Dual agent MIC assay (PlySs2 and daptomycin); assay type: cell-based, Staphylococcus aureus
# MRSA strains = assay: Time kill assay, PlySs2 and antibiotic alone or in combination; assay type: cell-based, Staphylococcus aureus; details: ½ MIC of PlySs2 or ¼ MIC of vancomycin alone
# [3] = test system: MRSA strain MW2 (also strains 738, 832); assay type: in vivo, BALB/c mice; details: FIG. 27E; 10^9 CFU, dosing at 2 hours; vancomycin 110 mg/kg twice daily, PlySs2 5.25 mg/kg
# [4] = test system: MRSA Staphylococcus aureus strain (MW2); assay: microbe, parasite or virus in culture; assay type: cell-based
Structure (SMILES),time to antibiotic penetration (BODIPY-labeled daptomycin binding) (S. aureus cell envelope; in the presence of CF-301 at 1/32nd MIC) [min],time to antibiotic penetration (BODIPY-labeled daptomycin binding) (S. aureus cell envelope; without CF-301) [min],time to reach bactericidal levels (≧3-log10 reduction in CFUs) [1] [hours],comparative kill [1],effective combination concentration as fraction of the MIC (MRSA strain 269 (MW2)),effective concentration in PlySs2 plus daptomycin combination MIC (MRSA strain 269 (MW2); 24 hours) [µg/mL],fold inhibition of MIC in the presence of Survanta ([2]; surfactant concentration of 1.25%),"fold inhibition of MIC in the presence of Survanta ([2]; surfactant up to 15%, vs MIC without surfactant)","MIC alone (MRSA S. aureus strains; MRSA strain 269 (MW2), single-agent) [µg/mL]","daptomycin MIC with 0.25×MIC PlySs2 (MRSA S. aureus strains; dual agent MIC assay, strain not named) [µg/mL]",effect alone at sub-MIC doses up to 6 hours (MRSA strains),24 hour survival rate [3] [%],72 hour survival rate [3] [%],time to cell wall-labeling with BODIPY-labeled vancomycin (S. aureus cell envelope; in the presence of CF-301 (⅛^th MIC)) [min],time to cell wall-labeling with BODIPY-labeled vancomycin (S. aureus cell envelope; without CF-301) [min],"fold increase in vancomycin MIC ([4]; 25-day, vancomycin-only) [fold]","vancomycin MIC, ending values ([4]; 25 day serial passage, PlySs2 (8 ug/ml) plus vancomycin (three cultures)) [µg/mL]","MIC ([4]; Staphylococcus aureus, MRSA, read-out: vancomycin MIC, starting value, MW2) [µg/mL]"
"CCCCCCCCCC(=O)N[C@@H](Cc1c[nH]c2ccccc12)C(=O)N[C@H](CC(N)=O)C(=O)N[C@@H](CC(=O)O)C(=O)N[C@@H]1C(=O)NCC(=O)N[C@@H](CCCN)C(=O)N[C@@H](CC(=O)O)C(=O)N[C@H](C)C(=O)N[C@@H](CC(=O)O)C(=O)NCC(=O)N[C@H](CO)C(=O)N[C@@H]([C@H](C)CC(=O)O)C(=O)N[C@@H](CC(=O)c2ccccc2N)C(=O)O[C@@H]1C [Daptomycin, reference compound]",15,180,6,most effective against most strains,1/1024,0.25,more than 20 fold,up to 256 fold,1,0.0075,–,–,–,–,–,–,–,–
"Cc1onc(-c2ccccc2)c1C(=O)N[C@@H]1C(=O)N2[C@@H]1SC(C)(C)[C@@H]2C(=O)O [Oxacillin, oxacillin, reference compound]",–,–,–,least effective,–,–,–,–,–,–,–,–,–,–,–,–,–,–
"CN[C@H](CC(C)C)C(=O)N[C@H]1C(=O)N[C@@H](CC(N)=O)C(=O)N[C@H]2C(=O)N[C@H]3C(=O)N[C@H](C(=O)N[C@H](C(=O)O)c4cc(O)cc(O)c4-c4cc3ccc4O)[C@H](O)c3ccc(c(Cl)c3)Oc3cc2cc(c3O[C@@H]2O[C@H](CO)[C@@H](O)[C@H](O)[C@H]2O[C@H]2C[C@](C)(N)[C@H](O)[C@H](C)O2)Oc2ccc(cc2Cl)[C@H]1O [Vancomycin, vancomycin]",–,–,–,–,–,–,–,–,–,–,ineffective or poorly effective,20,3,≤ 5,30,16,2,1
